Source: patent US20190016689A1, “NOVEL FLUORINATED QUINAZOLINE DERIVATIVES AS EGFR INHIBITORS” (TRILLIUM THERAPEUTICS INC., priority 2016, published 2019)

Columns and labels:
P-gp = assay: in vitro; conditions: human, Caco-2, pH 7.4
Procedure: At this stage of growth, cell monolayers were fully polarized and differentiated.
The permeability assay buffer was Hanks Balanced Salt Solution containing 10 mM HEPES and 15 mM glucose at a pH of 7.4. The dosing buffer contained 5 μM metoprolol (positive control), 5 μM atenolol (negative control) and 100 μM lucifer yellow. The buffer in the receiver chamber also contained 1% bovine serum albumin (BSA). The dosing solution concentration was 5 μM in the assay buffer. Digoxin (20 μM) was used as Pgp substrate control.
The known Pgp inhibitor was co-dosed at 50 μM with compound at 5 μM.
Cell monolayers were dosed on the apical side (A-to-B) or basolateral side (B-to-A) and incubated at 37° C. in a shaker (65 rpm). Samples were taken from the donor and receiver chambers at 120 minutes. Each determination was performed in duplicate.
Narrow-window mass extraction LC/MS analysis was performed for all samples from this study using a Waters Xevo quadrupole time-of-flight (QTof) mass spectrometer, to determine relative peak areas of parent compound. The percent of transported drug was calculated based on these peak areas, relative to the initial, dosing concentration.

hepatocytes = assay: Metabolic stability (hepatocytes); type: in vitro ADME; conditions: 1 μM
Procedure: a) Place incubation medium (William's E Medium supplemented with GlutaMAX) and hepatocyte thawing medium in a 37° C. water bath, and allow warming for at least 15 minutes prior to use. b) Remove a vial of cryopreserved hepatocytes from storage, ensuring that vials remain at cryogenic temperatures until thawing process ensues. Thaw the cells by placing the vial in a 37° C. water bath and gently shaking the vials for 2 minutes. After thawing is completed, spray vial with 70% ethanol, transfer the vial to a biosafety cabinet. c) Use wide-bore pipette tip to transfer hepatocytes into 50 mL conical tube containing thawing medium. Place the 50 mL conical tube into a centrifuge and spin at 100 g for 10 minutes. Upon completion of spin, aspirate thawing medium and resuspend hepatocytes in enough incubation medium to yield ˜1.5×10^6 cells/mL. d) Using a Trypan Blue exclusion, count cells and determine the viable cell density. Cells with poor viability (<75% viability) are not acceptable for use. Dilute cells with incubation medium to a working cell density of 0.5×10^6 viable cells/mL. e) A portion of the hepatocytes at 0.5×10^6 viable cells/mL was boiled for 5 min prior to adding to the plate as negative control to eliminate the enzymatic activity so that little or no substrate turnover should be observed. The boiled hepatocytes are used to prepare negative control samples, which used to exclude the misleading factor that resulted from instability of chemical itself. Negative control wells are prepared in duplicate.
a) Pipette 198 μL of hepatocytes into each wells of a 96-well non-coated plate. Place the plate in the CO2 incubator at 37° C. on an orbital shaker to allow the hepatocytes to warm for 10 minutes. b) Pipette 2 μL of the 100 μM test compounds or positive control into respective wells of the 96-well plate to start the reaction. c) Return the plate to the incubator and place on an orbital shaker with a shaking speed of 150 rpm. The reaction for each compound will be performed in duplicate.
a) Remove 25 μL aliquots of reaction mixture at time points of 0, 15, 30, 60, 90 and 120 minutes. b) The aliquots are then mixed with 6 volumes (150 μL) of acetonitrile containing internal standards (IS: 100 nM alprazolam, 200 nM labetalol, and 2 μM ketoprofen) to terminate the reaction. Centrifuge the plate for 20 minutes at 3,800 g. Aliquots of 100 μL of the supernatants will be mixed with 100 μL ultrapure water and used for LC/MS/MS analysis.

CN(C)C/C=C/C(=O)Nc1cc2c(Nc3cccc(Cl)c3F)ncnc2cc1OCCOC(F)F.O=C(O)/C=C\C(=O)O [Example I-5-MA, (E)-N-[4-(3-chloro-2-fluoro-anilino)-7-[2-(difluoromethoxy)ethoxy]quinazolin-6-yl]-4-(dimethylamino)but-2-enamide dimaleic acid salt]
efflux ratio at 120 min, 5 µM (P-gp): 0.48 | % Remaining @ 120 min (hepatocytes; Dog hepatocytes): 47.29% | % Remaining @ 120 min (hepatocytes; Human hepatocytes): 82.95% | % Remaining @ 120 min (hepatocytes; Monkey hepatocytes): 21.97% | % Remaining @ 120 min (hepatocytes; Mouse hepatocytes): 36.27% | % Remaining @ 120 min (hepatocytes; Rat hepatocytes): 59.08%
